Test results published in patent publication US11026943B2, “Aminoquinoline derivatives and uses thereof” (UNIVERSITY OF DELHI, priority 2012, dated 2021).

Assays:
[1] = system: aphakia (ak/ak) mice; test: Behavioral studies in ak/ak mice (Pole, Challenging Beam, Cylinder, Rotarod) and SN histology; format: in vivo, mouse
Description: Either 20 mg/kg of AQ (AQ group) or the saline (Saline group) was intraperitoneally injected (I.P.) twice per day for two weeks. 8 mg/kg of L-DOPA (L-DOPA group) in 0.5% DMSO was injected (I.P.) once per day for two weeks. The L-DOPA group was given 12.5 mg/kg benserazide 20 min prior to administration of L-DOPA.
Each ak mouse was randomly assigned into one of three experiment groups, (1) saline group (negative control; n=8), (2) L-DOPA group (positive control; n=8), (3) AQ group (n=10). Each WT or rdl mouse was randomly divided into two groups, (1) saline group (n=8) and (2) AQ group (n=10). Pole Test, Challenging Beam Traversal Test, and Cylinder Test were performed at two time points, immediately and one month after two weeks of either AQ or saline injection. Each mouse ran each task twice. Rota rod test was performed immediately after two weeks of either drug or saline injection. Acclimation and data recording process were identical to the rat study described above. All tasks were performed as described previously^11 and the short description of each task is as follows.
A vertical wooden pole 50 cm in length and 1 cm in diameter was used for Pole Test. Each mouse was gently placed head upwards on top of the pole which is placed on each animal's home cage. Each mouse ran tree trials per session during 2 training sessions. On the testing day, mice ran three trials. Two parameters (the meantime to orient downward and the total travel mean time) were used for the statistical analysis.
A 1 m length of plastic beam was used for Challenging Beam Traversal Test. The starting width of the beam was 3.5 cm and it gradually narrowed in 1 c increments to 0.5 cm at the other end site of the beam. Animals were trained to walk from the wide end to the other end for 2 sessions, three trials per session before testing. A mesh grid was removed during the training period. On the testing day, a mesh grid (1 cm square) covering the beam surface was equipped leaving a […] room between the grid and the beam surface. On the testing day, mice ran three trials. Two parameters (the mean number of steps taken by each animal and the mean time to traverse across three trials) were collected and used for statistical analysis.
A small transparent cylinder (height, 15.5 cm; diameter, 12.7 cm) was used to evaluate somatosensory motor function. Mice were placed in the cylinder and their rears were counted for 5 minutes. The forelimb touching the Plexiglas wall (a vertical movement) is defined as a full rear. The mean number of forelimb use was calculated for the statistical analysis. […]
The Rota rod equipment (Med-Associates, Inc, Albans, Vt., USA) was used to measure motor coordination. […] The mean latency to fall off from the Rota rod was measured for the statistical analysis. […]

[2] = target: T1, Nurr1 LBD with SRC-1/SRC-3 (Mus musculus, UniProt Q06219); test: Nurr1 LBD transactivation with VP16-SRC1/VP16-SRC3 overexpression; format: cell-based; details: 30 μM AQ or 100 μM CQ for 16 hours
T1 construct: The Nurr1 LBD fragment from amino acid position 328 to amino acid position 598 was PCR-amplified; expressed in transfected cells; host or cells: SK-N-BE(2)C human neuroblastoma cells

[3] = system: primary cultures of rat mesencephalic DA neurons; test: 6-OHDA-induced death in primary mesencephalic DA neurons (TH+ count, [3H]DA uptake); format: cell-based; details: number of TH+ neurons and DA uptake; 20 μM 6-OHDA for 24 hr
Description: Control DA neurons were treated with the above medium in the presence of a dopamine uptake blocker, 10 μM mazindol (Sigma). Cells were then washed with ice-cold Krebs Ringers solution and lysed with 0.5 M NaOH. Radioactivity was quantified by a liquid scintillation counter (Beckman, Fullerton, Calif.).
To prepare primary cultures of DA neurons, the ventral mesencephalon was removed from 14 day gestation Sprague Dawley rat embryo (Charles River, Cambridge, Mass.). Tissues were incubated with 0.01% trypsin in MEM (MEM, Invitrogen) for 10 min at 37° C. and triturated using a constricted Pasteur pipette. DA neurons were plated at 1.0×10^5 cells per 9 mm diameter glass cover slip precoated with 100 μg/ml poly-D-lysine (Sigma, St. Louis, Mo.) and 4 μg/ml laminin (Invitrogen). DA neurons were maintained at 37° C. in a humidified 5% CO2 atmosphere in minimum essential medium supplemented with 10% FBS (Hyclone), 2 mM glutamine and 6.0 g/l glucose. […]
Cells were fixed in 4% paraformaldehyde (PFA) for 20 min, washed and then incubated with blocking buffer [PBS, 10% goat serum (Invitrogen), 0.3% Triton X-100 (Sigma)] for 1 hour. […] Following washes with PBS, appropriate fluorescence-tagged secondary antibodies (Jackson Immunoresearch Laboratories, West Grove, Pa.) were used for visualization. […]

[4] = system: murine microglial BV-2 cells; format: cell-based, mouse; details: 10 ng/ml LPS for 4 hrs, AQ 10 and 15 μM
Description: To prepare primary cultures of DA neurons, the ventral mesencephalon was removed from 14 day gestation Sprague Dawley rat embryo (Charles River, Cambridge, Mass.). Tissues were incubated with 0.01% trypsin in MEM (MEM, Invitrogen) for 10 min at 37° C. and triturated using a constricted Pasteur pipette. DA neurons were plated at 1.0×10^5 cells per 9 mm diameter glass cover slip precoated with 100 μg/ml poly-D-lysine (Sigma, St. Louis, Mo.) and 4 μg/ml laminin (Invitrogen). DA neurons were maintained at 37° C. in a humidified 5% CO2 atmosphere in minimum essential medium supplemented with 10% FBS (Hyclone), 2 mM glutamine and 6.0 g/l glucose. At 5 or 6 days in vitro, DA neurons were washed with MEM and treated with various experimental reagents for the time periods indicated. Reagents used were 6-OHDA (Sigma), N-acetyl-cysteine, N-benzyloxycarbonyl-Val-Ala-Asp-fluoromethylketone (Z-VAD-fink; Enzyme Systems Products, Livermore, Calif.). BV-2 cells, a microglial-like mouse cell line, were thawed and passaged until logarithmic growth was achieved. Cell cultures were maintained in 6-well culture plate (Corning Costar, Corning, N.Y.) at a concentration of 1.0×10^5 cells per well, in the growth medium consisting of DMEM (Sigma, St. Louis, Mo.), supplemented with 10% fetal bovine serum (FBS; Hyclone) heat inactivated at 56° C. for 30 min, 2 mM L-glutamine(Sigma) and 1× Pen-Strep (Invitrogen). […]

[5] = target: Nurr1 LBD (Mus musculus, UniProt Q06219); test: Nurr1 LBD GAL4 reporter assay (pSVGAL(DBD)-N(LBD), p8xGAL-Luc) in SK-N-BE(2)C cells; format: cell-based; details: read-out: EC50 Nurr1 LBD-based reporter activity
Description: The pTH2600LUC reporter construct contains the 2.6 kb upstream sequences of the rat tyrosine hydroxylase gene in front of a firefly luciferase gene in pGL3-basic vector. A Nurr1-expression plasmid, pSV40Nurr1, was kindly provided by Dr Orla M. Conneely at Baylor College of Medicine (Houston, Tex., USA). […] The VP16/SRC1 and VP16/SRC3 hybrid were constructed by inserting the transactivation domain of the VP16 protein upstream of SRC1 and SRC3, respectively. […] The recombinant proteins were purified by Ni-NTA column chromatography (Qiagen) according to the manufacturer's instruction. The integrity of all sequences was verified by DNA sequence analyses.
Human neuroblastoma SK-N-BE(2)C cells were maintained in Dulbecco's modified Eagle's medium (DMEM) supplemented with 10% fetal bovine serum. All culture media contained 100 units/ml penicillin and 100 μg/ml streptomycin. For transfection, cells were plated at 1.5×10^5 cells/well in the DMEM media without antibiotic into 24-well plates 1 day prior to transfection. Transfections were carried out by the Lipofectamine plus (Invitrogen) according to the manufacture's protocol. Total DNA amount was 0.5 μg per well with 0.1 μg of pRSV-β-gal as an internal control. 6 hours after transfection, compounds in the DMEM media with 1% charcoal-stripped fetal calf serum was added and incubated overnight. Cells from each well were lysed with 100 μl of lysis buffer, which contains 25 mM Tris-phosphate (pH 7.8), 2 mM DTT, 2 mM CDTA (1,2-diaminocyclohexane-N,N,N′,N′-tetraacetic acid), 10% glycerol, and 1% Triton X-100. Then equal volume of firefly luciferase substrate was added and the luciferase activity was measured using a Luminometer plate reader and normalized for beta-galactosidase activity.

T1 sequence (Q06219 328-598): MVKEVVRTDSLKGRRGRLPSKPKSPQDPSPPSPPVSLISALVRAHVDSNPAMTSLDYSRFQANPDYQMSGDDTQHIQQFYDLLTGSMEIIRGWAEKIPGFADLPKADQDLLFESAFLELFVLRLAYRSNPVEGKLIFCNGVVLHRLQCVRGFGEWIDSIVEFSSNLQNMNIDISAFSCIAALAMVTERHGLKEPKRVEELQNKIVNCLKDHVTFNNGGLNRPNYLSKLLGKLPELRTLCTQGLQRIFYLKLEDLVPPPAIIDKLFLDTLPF
Nurr1 LBD, sequence (Q06219 328-598): as above

In the case of `CCN(CC)Cc1cc(Nc2ccnc3cc(Cl)ccc23)ccc1O` [AQ, amodiaquine], the “motor deficits in Pole, Challenging Beam, Cylinder and Rotarod tests” value ([1]; 2 weeks of AQ 20 mg/kg i.p. twice per day) is reported as “significantly improved”, the “activated microglia (CD11b) in the SN” value ([1]; after AQ for 2 weeks) is reported as “reduced to the level of wild type mice” and the “number of TH+ neurons in ak/ak mice” value ([1]; data not shown) is reported as “not detectably altered”. For the same compound, the “Nurr1 transcriptional function with SRC-1/SRC-3 overexpression” value [2] was “further enhanced”, the “6-OHDA-induced death in primary DA neurons” value [3] was “significantly inhibit” and the “LPS-induced expression of pro-inflammatory cytokines” value [4] was “suppresses”. It also gave an EC50 [5] of about 20 µM.
